Tests used:
Type in all cases: in vivo
Viola tricolor [1] = assay: Herbicidal effect pre-emergence; conditions: 320 g/ha, visual grading after ca. 3 weeks vs untreated controls
Description: (§1) Herbicidal activities of the compounds of the formulae (G1) or (G2) according to the invention were investigated against the following harmful plants: • ALOMY=Alopecurus myosuroides • ECHCG=Echinochloa crus-galli • SETVI=Setaria viridis • ABUTH=Abutilon theophrasti • AMARE=Amaranthus retroflexus • PHBPU=Pharbitis purpurea • POLCO=Polygonum convolvulus (=Fallopia convolvulus) • STEME=Stellaria media • VIOTR=Viola tricolor
(§2) Seeds of mono- and dicotyledonous weed plants and crop plants are sown in wood-fiber pots in sandy loam and covered with soil. The compounds according to the invention, formulated in the form of wettable powders (WP) or as emulsifiable concentrates (EC), are then applied to the surface of the covering soil as aqueous suspension or emulsion, with the addition of 0.5% of an additive, at an application rate of 600 l of water/ha (converted).
(§3) Following treatment, the pots are placed in a greenhouse and kept under optimum growth conditions for the test plants. The visual grading of the damage to the test plants is carried out after ca. 3 weeks in comparison to untreated controls (herbicidal effect in percent (%): 100% effect=plants have died off, 0% effect=as control plants).

Setaria viridis [2] = assay: Herbicidal effect pre-emergence; conditions: 320 g/ha, visual grading after ca. 3 weeks vs untreated controls
Description: as §1, §2, §3

Amaranthus retroflexus [3] = assay: Herbicidal effect pre-emergence; conditions: 320 g/ha, visual grading after ca. 3 weeks vs untreated controls
Description: as §1, §2, §3

Viola tricolor [4] = assay: Herbicidal effect post-emergence; conditions: 320 g/ha, visual grading after ca. 3 weeks (Table 9)
Description: as §1
(§4) Seeds of mono- and dicotyledonous weed plants and crop plants are sown in wood-fiber pots in sandy loam, covered with soil and grown in a greenhouse under controlled growth conditions. 2 to 3 weeks after sowing, the test plants are sprayed in the single-leaf stage. The compounds according to the invention, formulated in form of wettable powders (WP) or as emulsifiable concentrates (EC), are then sprayed onto the green plant parts as aqueous suspension or emulsion, with the addition of 0.5% of an additive, at an application rate of 600 l of water/ha (converted). After the test plants had been in the greenhouse for ca. 3 weeks under optimum growth conditions, the effect of the preparations is assessed visually in comparison with untreated controls (herbicidal effect in percent (%): 100% effect=plants have died off, 0% effect=as control plants).

Setaria viridis [5] = assay: Herbicidal effect post-emergence; conditions: 320 g/ha, visual grading after ca. 3 weeks (Table 9)
Description: as §1, §4

Amaranthus retroflexus [6] = assay: Herbicidal effect post-emergence; conditions: 320 g/ha, visual grading after ca. 3 weeks (Table 9)
Description: as §1, §4

| SMILES | herbicidal effect VIOTR (Viola tricolor [1]) | herbicidal effect SETVI (Setaria viridis [2]) | herbicidal effect AMARE (Amaranthus retroflexus [3]) | herbicidal effect VIOTR (Viola tricolor [4]) | herbicidal effect SETVI (Setaria viridis [5]) | herbicidal effect AMARE (Amaranthus retroflexus [6]) |
| --- | --- | --- | --- | --- | --- | --- |
| Nc1nsc2c(=O)n(CC3CCCCC3Cl)cc(Cl)c12 (racemic) [Example I-155] | 100% | 100% | 80% | – | – | – |
| O=C(Nc1nsc2c(=O)n(CC3CCCCC3Cl)cc(Cl)c12)C(F)F (racemic) [Example I-159] | 100% | 100% | 100% | – | – | – |
| CCC(=O)Nc1nsc2c(=O)n(CC3CCCCC3Cl)cc(Cl)c12 (racemic) [Example I-173] | 100% | 100% | 90% | – | – | – |
| CCc1cc2c(N)nsc2c(=O)n1CC1CCCCC1 [Example I-020] | – | – | – | 100% | 100% | 100% |
| CC(C)c1cc2c(NC(=O)C(F)(F)C(F)(F)F)nsc2c(=O)n1CC1CCCCC1 [Example I-021, N-[6-(cyclohexylmethyl)-5-isopropyl-7-oxo-isothiazolo[5,4-c]pyridin-3-yl]-2,2,3,3,3-pentafluoro-propanamide] | 100% | 90% | 100% | 80% | 100% | 100% |
| O=C(Nc1nsc2c(=O)n(CC3CCCCC3)c(C3CC3)cc12)C(F)(F)C(F)(F)F [Example I-022] | 100% | 100% | 100% | – | – | – |
| CC(C)c1cc2c(N)nsc2c(=O)n1CC1CCCCC1 [Example I-023, 3-amino-6-(cyclohexylmethyl)-5-isopropyl-isothiazolo[5,4-c]pyridin-7-one] | 90% | 90% | 100% | 100% | 90% | 100% |
| CC(=O)OCc1cc2c(N)nsc2c(=O)n1CC1CCCCC1 [Example I-027] | 90% | 90% | 100% | – | – | – |
| CCCc1cc2c(NC(=O)C(F)(F)C(F)(F)F)nsc2c(=O)n1CC1CCCCC1 [Example I-032] | 80% | 100% | 80% | – | – | – |
| CCC(=O)Nc1nsc2c(=O)n(CC3CCCCC3)c(COC)cc12 [Example I-033] | 100% | 100% | 100% | – | – | – |
| COCc1cc2c(NC(=O)C(F)(F)C(F)(F)F)nsc2c(=O)n1CC1CCCCC1 [Example I-034] | 100% | 100% | 100% | – | – | – |
| CC(=O)OCc1cc2c(NC(=O)C(F)(F)C(F)(F)F)nsc2c(=O)n1CC1CCCCC1 [Example I-035] | 80% | 100% | 100% | – | – | – |
| Nc1nsc2c(=O)n(CC3CCCCC3)c(CO)cc12 [Example I-036] | 80% | 90% | 100% | 100% | 100% | 90% |
| CCC(=O)OCc1cc2c(N)nsc2c(=O)n1CC1CCCCC1 [Example I-046] | 90% | 100% | 100% | – | – | – |
| C=Cc1cc2c(N)nsc2c(=O)n1CC1CCCCC1 [Example I-051] | 100% | 90% | 90% | – | – | – |
| CC(O)c1cc2c(N)nsc2c(=O)n1CC1CCCCC1 (stereo not drawn) [Example I-072] | – | – | – | 100% | 80% | 100% |
| COC(C)(C)C#Cc1cn(CC2CCCCC2)c(=O)c2snc(N)c12 [Example I-105] | 100% | 100% | 100% | – | – | – |

| SMILES | herbicidal effect VIOTR (Viola tricolor [1]) | herbicidal effect SETVI (Setaria viridis [2]) | herbicidal effect AMARE (Amaranthus retroflexus [3]) | herbicidal effect VIOTR (Viola tricolor [4]) | herbicidal effect SETVI (Setaria viridis [5]) | herbicidal effect AMARE (Amaranthus retroflexus [6]) |
| --- | --- | --- | --- | --- | --- | --- |
| CCc1cn(CC2CCCCC2)c(=O)c2snc(NC(=O)C(F)(F)C(F)(F)F)c12 [Example I-107] | 100% | 80% | 100% | – | – | – |
| COC/C=C/c1cn(CC2CCCCC2)c(=O)c2snc(N)c12 [Example I-108] | – | – | – | 100% | 100% | 100% |
| CCO/C=C/c1cn(CC2CCCCC2)c(=O)c2snc(N)c12 [Example I-113] | – | – | – | 100% | 100% | 100% |
| CC#Cc1cn(CC2CCCCC2)c(=O)c2snc(N)c12 [Example I-115] | – | – | – | 100% | 100% | 100% |
| CCCc1cn(CC2CCCCC2)c(=O)c2snc(N)c12 [Example I-126] | – | – | – | 100% | 80% | 100% |
| Cc1ccc(-c2cn(CC3CCCCC3)c(=O)c3snc(N)c23)o1 [Example I-132] | – | – | – | 90% | 100% | 80% |
| C=C(OCC)c1cn(CC2CCCCC2)c(=O)c2snc(N)c12 [Example I-133] | 100% | 90% | 90% | – | – | – |
| CO/N=C(/C)c1cn(CC2CCCCC2)c(=O)c2snc(N)c12 [Example I-134] | – | – | – | 100% | 80% | 100% |
| CCO/N=C(/C)c1cn(CC2CCCCC2)c(=O)c2snc(N)c12 [Example I-141] | – | – | – | 100% | 100% | 100% |
| CCO/N=C(/C)c1cn(CC2CCCCC2)c(=O)c2snc(N)c12 [Example I-142] | – | – | – | 80% | 100% | 100% |
| C=CCc1cn(CC2CCCCC2)c(=O)c2snc(N)c12 [Example I-143] | – | – | – | 100% | 100% | 100% |
| Nc1nsc2c1C(O)CN(CC1CCCCC1)C2=O (stereo not drawn) [Example I-144] | 100% | 90% | 100% | – | – | – |
| CC(O)c1cn(CC2CCCCC2)c(=O)c2snc(N)c12 (stereo not drawn) [Example I-147] | – | – | – | 100% | 80% | 100% |
| CC(=O)c1cn(CC2CCCCC2)c(=O)c2c1C(N)=NS2(=O)=O [Example I-158] | 100% | 80% | 90% | – | – | – |
| C/C(=N/OCC1CC1)c1cn(CC2CCCCC2)c(=O)c2snc(N)c12 [Example I-167] | 100% | 100% | 100% | – | – | – |
| Nc1nsc2c(=O)n(CC3CCCCC3)cc(C(=O)O)c12 [Example I-170] | 90% | 100% | 100% | – | – | – |
